Data reported in patent US10286038B2, “Lysosome membrane protein 2 (LIMP-2) based peptides and related uses” (Northwestern University, priority 2016, dated 2019).

Test system: endogenous GC in Cos 7 cells
Conditions: biotinylated peptide, neutral pH
Method: For pulldown of endogenous and overexpressed GC from N2a cell lysates 20 nmol of LIMP-2-derived peptide (Helix 5 and 3×D) was incubated with 50 μl cell lysate at 4° C. overnight. The cells were harvested in EBC-buffer (Table 3). After blocking and equilibration of the streptavidin beads (see above) the cell lysate/peptide mixtures were added to the beads for 30 min. at room temperature. The supernatant was removed. After extensive washing of the beads with NaPhosphate buffer, the bound peptides and proteins were released from the beads by incubation with Laemmli buffer (see above). After centrifugation for 2 min. at 17,000×g the supernatant was removed (BOUND fraction) and subjected to SDS-Page and Western-blotting. An antibody against human GC (α-hGC, for details see Table 4) was used for detection.

How did the “co-precipitation of endogenous GC from cellular lysates” value turn out when “Biotin-Ttds-LREIIEAMLKAYQQKLFVTHTVDE [helix 5 peptide]” was run?
The value was “specifically co-precipitated”.
